Experiments:
[1] = biological target: T1, wildtype GAT-1 (Rattus norvegicus, UniProt P23978); assay: 3H GABA uptake, HEK293T cells expressing wildtype GAT-1^YFP; format: cell-based; conditions: for GABA uptake activity vs. wildtype 0: HEK293T, wildtype GAT-1^YFP, normalized to DMSO treated
T1 construct: The coding region of rGAT-1 was inserted into pEYFP-C1 (Clontech, Palo Alto, CA); expressed in transfected cells; host or cells: HEK293T cells (A1); astrocytes from corrected human iPSCs (A21)
Procedure: (§1) GABA uptake activity was measured by the high-throughput 3H radio-labeling GABA uptake on a liquid scintillator with QuantaSmart. […] HEK293T cells were transfected with the wildtype or the mutant GAT-1^YFP cDNAs alone for 48 hr. […] HEK293T cells were transfected with the wildtype GAT-1^YFP alone or in mixture of the wildtype or the mutant cDNAs for 48 hr. In the mixed condition, the ratio of the wildtype GAT-1 with pcDNA or the mutant cDNAs are 1:1 with the total cDNA amount of 0.5 μg. […] Both wt and the mutant were normalized to its own DMSO treated conditions. 966 stands for the wildtype treated with CI-966 (50 μM) while 711 stands for NNC-711 (35 μM). (N=4-7 different transfections. In FIG. 4A and FIG. 4B, *P<0.05, **P<0.01, ***p<0.001 vs. wt 0. In FIG. C and FIG. 4D, *P<0.05, **P<0.01, ***p<0.001 vs. its own DMSO treated. In FIG. 4C, ns stands for no significance. One-way analysis of variance (ANOVA) and Newman-Keuls test. Values were expressed as mean±S.E.M.
The plasmid cDNA encoding enhanced yellow fluorescent protein (EYFP)-tagged rat GAT-1 has been previously described. The coding region of rGAT-1 was inserted into pEYFP-C1 (Clontech, Palo Alto, CA). QuikChange Site-directed Mutagenesis kit was utilized to introduce the GAT-1 variants into a wildtype GAT-1 plasmid. The product was then amplified via polymerase chain reaction, transformed using DH5a competent cells, and plated. A clone was chosen and grown overnight. All the GAT-1 variants were confirmed by DNA sequencing. Both the wildtype and the variant cDNAs were prepared with Qiagen Maxiprep kit.
Human embryonic kidney cells were cultured as monolayers in 100 mm^2 dishes. Cells were cultured in Dulbecco's Modified Eagle's Medium supplemented with 10% FBS and 1% penicillin/streptomycin in 37° C. in 5% CO2/95% air. Cells were maintained in culture medium until appropriate confluency for experimentation.
Briefly, cells were cultured in […] dishes for 3 days before the GABA uptake experiment in DMEM with 10% fetal bovine serum and 1% penicillin/streptomycin. The cells were then transfected with equal amounts of the wildtype or the mutant GAT-1 cDNAs (1 μg) for each condition at 24 hrs or 48 hrs after plating. GABA uptake assay was carried out 48 hrs after transfection. The cells were incubated with preincubation solution for 15 min and then incubated with preincubation solution containing 1 μci/mL 3H GABA and 10 μM unlabeled GABA for 30 min at room temperature. After washing, the cells were lysed with 0.25 N NaOH for 1 hr. Glacial acetic acid was added, and lysates were then determined on a liquid scintillator with QuantaSmart. The flux of GABA (pmol/μg/min) was averaged with at least triplets for each condition at each transfection. The average counting was taken as n=1. […]

[2] = cited from earlier work
[3] = biological target: GAT-1 E16X (Rattus norvegicus, UniProt P23978); assay: 3H GABA uptake, HEK293T, mutant cDNA alone ("homozygous"); format: cell-based; design: with only 15 amino acids left in the protein peptide; expressed in transfected cells; host or cells: HEK293T cells; conditions: PBA 2 mM, 24 hrs
Procedure: as §1
The plasmid cDNA encoding enhanced yellow fluorescent protein (EYFP)-tagged rat GAT-1 has been previously described. […]
Briefly, cells were cultured in […] dishes for 3 days before the GABA uptake experiment in DMEM with 10% fetal bovine serum and 1% penicillin/streptomycin. […] Glacial acetic acid was added, and lysates were then determined on a liquid scintillator with QuantaSmart. […]

GABA uptake activity vs. wildtype 0 ([1]; PBA 4 mM as printed): 1.24±0.09 | GABA uptake activity vs. wildtype 0 ([1]; PBA for 24 hrs): 1.24±0.05 | cell loss ([1]; cells treated with PBA at 4 mM and/or 48 hrs): occasional cell loss | GABA uptake normalized to its own DMSO treated condition [3]: 0.813±0.06
Structure (SMILES): O=C(O)CCCc1ccccc1 [PBA, 4-phenylbutyric acid]
GABA uptake activity, concentration and time dependence ([1]; PBA 0 to 4 mM, 0 to 48 hrs): concentration and time dependently increased | oral bioavailability [2]: orally bioavailable

— patent publication US20260144769A1, “4-PHENYLBUTYRATE RESTORED GABA UPTAKE AND REDUCED SEIZURES IN SLC6A1 VARIANT-MEDIATED DISORDERS” (Vanderbilt University, priority 2022, published 2026)
